From publication PMC4844702, “Selective inhibition of the kinase DYRK1A by targeting its folding process” (Nature Communications, 2016)

Tests used:
Assay in all cases: Kinase panel (Carna)
Type in all cases: biochemical
EPHA6 = molecular target: T1, EPHA6 (Homo sapiens, UniProt Q9UF33)
T1 construct: purchased Carna Biosciences

EPHB3 = molecular target: T2, EPHB3 (Homo sapiens, UniProt P54753)
T2 construct: purchased Carna Biosciences
Source text: (§1) Detailed information on the assay conditions is available on the website of Carna Biosciences (http://www.carnabio.com).

MER = molecular target: T3, MER (Homo sapiens, UniProt Q12866)
T3 construct: purchased Carna Biosciences
T3 sequence (Q12866 21-999): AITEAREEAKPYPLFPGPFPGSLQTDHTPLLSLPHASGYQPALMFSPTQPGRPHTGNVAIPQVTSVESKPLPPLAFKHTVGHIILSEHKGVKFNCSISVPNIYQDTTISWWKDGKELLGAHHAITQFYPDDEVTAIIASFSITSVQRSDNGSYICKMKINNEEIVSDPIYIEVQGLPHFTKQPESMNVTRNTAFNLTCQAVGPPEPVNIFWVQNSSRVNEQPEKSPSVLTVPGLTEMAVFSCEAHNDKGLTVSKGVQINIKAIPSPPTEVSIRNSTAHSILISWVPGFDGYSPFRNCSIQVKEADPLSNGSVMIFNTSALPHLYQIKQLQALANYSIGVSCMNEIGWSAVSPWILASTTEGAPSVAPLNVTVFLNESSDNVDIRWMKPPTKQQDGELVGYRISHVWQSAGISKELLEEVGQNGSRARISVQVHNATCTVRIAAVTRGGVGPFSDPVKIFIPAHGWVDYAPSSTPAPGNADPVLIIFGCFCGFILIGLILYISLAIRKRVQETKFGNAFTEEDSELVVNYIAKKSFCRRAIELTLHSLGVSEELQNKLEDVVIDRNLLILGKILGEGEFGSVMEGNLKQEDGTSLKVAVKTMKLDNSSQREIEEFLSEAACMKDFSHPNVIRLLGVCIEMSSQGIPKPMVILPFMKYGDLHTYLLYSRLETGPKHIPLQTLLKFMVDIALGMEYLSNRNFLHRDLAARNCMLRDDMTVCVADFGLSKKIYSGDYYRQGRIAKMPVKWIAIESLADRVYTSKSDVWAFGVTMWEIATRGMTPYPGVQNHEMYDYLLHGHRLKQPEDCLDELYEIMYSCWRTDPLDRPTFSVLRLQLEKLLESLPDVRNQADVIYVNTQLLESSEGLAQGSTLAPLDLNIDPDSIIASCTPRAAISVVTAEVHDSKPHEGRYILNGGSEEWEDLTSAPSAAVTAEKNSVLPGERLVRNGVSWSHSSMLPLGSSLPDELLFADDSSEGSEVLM
Source text: as §1

FRK = molecular target: T4, FRK (Homo sapiens, UniProt P42685)
T4 construct: purchased Carna Biosciences
Source text: as §1

IGF1R = molecular target: T5, IGF1R (Homo sapiens, UniProt P08069)
T5 construct: purchased Carna Biosciences
Source text: as §1

JAK1 = molecular target: T6, JAK1 (Homo sapiens, UniProt P23458)
T6 construct: purchased Carna Biosciences
Source text: as §1

JAK2 = molecular target: T7, JAK2 (Homo sapiens, UniProt O60674)
T7 construct: purchased Carna Biosciences
Source text: as §1

CaMK1α = molecular target: T8, CaMK1α (Homo sapiens, UniProt Q14012)
T8 construct: purchased Carna Biosciences
Source text: as §1

MUSK = molecular target: T9, MUSK (Homo sapiens, UniProt O15146)
T9 construct: purchased Carna Biosciences
Source text: as §1

RET = molecular target: T10, RET (Homo sapiens, UniProt P07949)
T10 construct: purchased Carna Biosciences
Source text: as §1

ROS = molecular target: T11, ROS (Homo sapiens, UniProt P08922)
T11 construct: purchased Carna Biosciences
Source text: as §1

SRC = molecular target: T12, SRC (Homo sapiens, UniProt P12931)
T12 construct: purchased Carna Biosciences
Source text: as §1

SRM = molecular target: T13, SRM (Homo sapiens, UniProt Q9H3Y6)
T13 construct: purchased Carna Biosciences
T13 sequence (Q9H3Y6 whole entry): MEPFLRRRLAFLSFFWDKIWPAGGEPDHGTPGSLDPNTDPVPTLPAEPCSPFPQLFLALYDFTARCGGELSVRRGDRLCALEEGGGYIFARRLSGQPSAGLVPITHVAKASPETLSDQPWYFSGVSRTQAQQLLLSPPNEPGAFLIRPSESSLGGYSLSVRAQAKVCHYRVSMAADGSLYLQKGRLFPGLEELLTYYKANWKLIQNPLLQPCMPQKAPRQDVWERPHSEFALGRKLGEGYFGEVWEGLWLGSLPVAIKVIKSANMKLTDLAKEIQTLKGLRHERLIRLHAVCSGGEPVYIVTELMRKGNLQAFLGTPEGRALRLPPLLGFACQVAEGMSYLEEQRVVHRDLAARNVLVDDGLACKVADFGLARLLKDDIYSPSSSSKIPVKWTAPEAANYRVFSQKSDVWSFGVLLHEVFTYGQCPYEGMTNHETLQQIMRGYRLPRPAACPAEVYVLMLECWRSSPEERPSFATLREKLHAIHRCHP
Source text: as §1

TRKA = molecular target: T14, TRKA (Homo sapiens, UniProt P04629)
T14 construct: purchased Carna Biosciences
Source text: as §1

TXK = molecular target: T15, TXK (Homo sapiens, UniProt P42681)
T15 construct: purchased Carna Biosciences
Source text: as §1

TYRO3 = molecular target: T16, TYRO3 (Homo sapiens, UniProt Q06418)
T16 construct: purchased Carna Biosciences
Source text: as §1

AMPKα2/β1/γ1 = molecular target: T17, AMPKα2/β1/γ1 (Homo sapiens, UniProt P54646)
T17 construct: purchased Carna Biosciences
Source text: as §1

AurA = molecular target: T18, AurA (Homo sapiens, UniProt O14965)
T18 construct: purchased Carna Biosciences
Source text: as §1

CaMK1δ = molecular target: T19, CaMK1δ (Homo sapiens, UniProt Q8IU85)
T19 construct: purchased Carna Biosciences
Source text: as §1

CDK2/CycA2 = molecular target: T20, CDK2/CycA2 (Homo sapiens, UniProt P24941)
T20 construct: purchased Carna Biosciences
Source text: as §1

CGK2 = molecular target: T21, CGK2 (Homo sapiens, UniProt Q13237)
T21 construct: purchased Carna Biosciences
Source text: as §1

Erk2 = molecular target: T22, Erk2 (Homo sapiens, UniProt P28482)
T22 construct: purchased Carna Biosciences

IKKα = molecular target: T23, IKKα (Homo sapiens, UniProt O15111)
T23 construct: purchased Carna Biosciences
Source text: as §1

JNK1 = molecular target: T24, JNK1 (Homo sapiens, UniProt P45983)
T24 construct: purchased Carna Biosciences
T24 sequence (P45983 whole entry): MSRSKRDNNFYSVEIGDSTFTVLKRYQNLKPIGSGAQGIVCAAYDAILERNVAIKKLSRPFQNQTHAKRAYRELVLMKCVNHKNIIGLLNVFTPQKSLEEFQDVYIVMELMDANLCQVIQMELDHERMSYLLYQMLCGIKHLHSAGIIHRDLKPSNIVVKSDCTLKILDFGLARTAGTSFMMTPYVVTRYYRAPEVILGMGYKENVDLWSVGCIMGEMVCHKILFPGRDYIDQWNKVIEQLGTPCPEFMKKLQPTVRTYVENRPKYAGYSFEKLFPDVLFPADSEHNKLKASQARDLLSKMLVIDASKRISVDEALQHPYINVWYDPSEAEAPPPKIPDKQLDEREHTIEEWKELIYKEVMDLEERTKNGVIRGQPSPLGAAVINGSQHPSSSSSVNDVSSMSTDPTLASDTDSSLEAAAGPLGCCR
Source text: as §1

LOK = molecular target: T25, LOK (Homo sapiens, UniProt O94804)
T25 construct: purchased Carna Biosciences

MAP2K5_Cascade = molecular target: T26, MAP2K5_Cascade (Homo sapiens, UniProt Q13163)
T26 construct: purchased Carna Biosciences
T26 sequence (Q13163 whole entry): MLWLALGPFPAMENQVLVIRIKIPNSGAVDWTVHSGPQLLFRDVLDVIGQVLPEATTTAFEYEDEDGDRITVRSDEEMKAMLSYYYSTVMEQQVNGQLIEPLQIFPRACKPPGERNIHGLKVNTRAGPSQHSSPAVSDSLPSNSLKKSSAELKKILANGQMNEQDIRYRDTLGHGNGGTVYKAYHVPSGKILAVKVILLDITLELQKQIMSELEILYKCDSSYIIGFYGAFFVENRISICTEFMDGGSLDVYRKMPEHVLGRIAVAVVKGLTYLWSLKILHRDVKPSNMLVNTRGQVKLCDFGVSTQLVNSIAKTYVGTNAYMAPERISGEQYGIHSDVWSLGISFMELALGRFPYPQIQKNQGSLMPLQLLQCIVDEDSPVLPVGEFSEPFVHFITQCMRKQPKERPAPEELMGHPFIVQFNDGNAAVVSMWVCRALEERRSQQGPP

MAP2K7_Cascade = molecular target: T27, MAP2K7_Cascade (Homo sapiens, UniProt O14733)
T27 construct: purchased Carna Biosciences
Source text: as §1

NuaK1 = molecular target: T28, NuaK1 (Homo sapiens, UniProt O60285)
T28 construct: purchased Carna Biosciences

MARK1 = molecular target: T29, MARK1 (Homo sapiens, UniProt Q9P0L2)
T29 construct: purchased Carna Biosciences
T29 sequence (Q9P0L2 whole entry): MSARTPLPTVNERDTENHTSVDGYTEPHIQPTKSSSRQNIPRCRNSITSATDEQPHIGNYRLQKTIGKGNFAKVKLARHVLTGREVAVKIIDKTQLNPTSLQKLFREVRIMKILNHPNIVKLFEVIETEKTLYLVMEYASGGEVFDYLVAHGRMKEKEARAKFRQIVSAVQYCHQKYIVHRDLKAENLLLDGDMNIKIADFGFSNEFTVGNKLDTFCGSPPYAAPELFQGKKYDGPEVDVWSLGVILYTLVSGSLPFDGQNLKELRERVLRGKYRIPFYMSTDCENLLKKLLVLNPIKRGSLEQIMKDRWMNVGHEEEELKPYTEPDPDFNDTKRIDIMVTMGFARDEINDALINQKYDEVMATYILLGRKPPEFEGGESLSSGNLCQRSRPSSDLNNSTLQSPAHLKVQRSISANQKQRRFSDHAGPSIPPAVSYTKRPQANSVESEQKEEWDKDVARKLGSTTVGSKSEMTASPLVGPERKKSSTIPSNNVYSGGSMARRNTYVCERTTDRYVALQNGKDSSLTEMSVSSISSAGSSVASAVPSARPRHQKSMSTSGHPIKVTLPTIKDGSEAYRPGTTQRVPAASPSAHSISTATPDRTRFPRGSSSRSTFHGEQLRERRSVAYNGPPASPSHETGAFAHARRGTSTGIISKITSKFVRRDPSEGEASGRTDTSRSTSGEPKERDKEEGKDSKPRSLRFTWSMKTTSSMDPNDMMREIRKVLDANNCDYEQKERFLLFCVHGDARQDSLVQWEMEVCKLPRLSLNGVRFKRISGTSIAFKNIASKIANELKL
Source text: as §1

MARK4 = molecular target: T30, MARK4 (Homo sapiens, UniProt Q96L34); conditions: 10 µM FINDY
T30 construct: purchased Carna Biosciences
Source text: as §1

MRCKβ = molecular target: T31, MRCKβ (Homo sapiens, UniProt Q9Y5S2)
T31 construct: purchased Carna Biosciences

NDR2 = molecular target: T32, NDR2 (Homo sapiens, UniProt Q9Y2H1)
T32 construct: purchased Carna Biosciences
T32 sequence (Q9Y2H1 whole entry): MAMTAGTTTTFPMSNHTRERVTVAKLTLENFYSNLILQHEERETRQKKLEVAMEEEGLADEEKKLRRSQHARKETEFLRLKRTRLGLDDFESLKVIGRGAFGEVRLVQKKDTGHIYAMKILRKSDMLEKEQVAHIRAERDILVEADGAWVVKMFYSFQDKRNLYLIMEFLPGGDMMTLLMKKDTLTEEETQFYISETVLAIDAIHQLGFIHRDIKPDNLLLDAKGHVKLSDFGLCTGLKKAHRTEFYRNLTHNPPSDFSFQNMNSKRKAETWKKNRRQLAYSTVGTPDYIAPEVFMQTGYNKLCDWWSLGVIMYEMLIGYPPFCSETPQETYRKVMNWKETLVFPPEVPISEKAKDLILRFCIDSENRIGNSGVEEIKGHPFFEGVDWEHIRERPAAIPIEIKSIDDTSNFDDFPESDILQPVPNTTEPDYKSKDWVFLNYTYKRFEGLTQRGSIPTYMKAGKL
Source text: as §1

NEK1 = molecular target: T33, NEK1 (Homo sapiens, UniProt Q96PY6)
T33 construct: purchased Carna Biosciences
Source text: as §1

NEK6 = molecular target: T34, NEK6 (Homo sapiens, UniProt Q9HC98)
T34 construct: purchased Carna Biosciences

PAK1 = molecular target: T35, PAK1 (Homo sapiens, UniProt Q13153)
T35 construct: purchased Carna Biosciences
Source text: as §1

PDK1 = molecular target: T36, PDK1 (Homo sapiens, UniProt O15530)
T36 construct: purchased Carna Biosciences
Source text: as §1

PIM1 = molecular target: T37, PIM1 (Homo sapiens, UniProt P11309); conditions: 10 µM FINDY
T37 construct: purchased Carna Biosciences
Source text: as §1

PKACβ = molecular target: T38, PKACβ (Homo sapiens, UniProt P22694)
T38 construct: purchased Carna Biosciences

PKCδ = molecular target: T39, PKCδ (Homo sapiens, UniProt Q05655)
T39 construct: purchased Carna Biosciences
Source text: as §1

ROCK1 = molecular target: T40, ROCK1 (Homo sapiens, UniProt Q13464)
T40 construct: purchased Carna Biosciences
T40 sequence (Q13464 whole entry): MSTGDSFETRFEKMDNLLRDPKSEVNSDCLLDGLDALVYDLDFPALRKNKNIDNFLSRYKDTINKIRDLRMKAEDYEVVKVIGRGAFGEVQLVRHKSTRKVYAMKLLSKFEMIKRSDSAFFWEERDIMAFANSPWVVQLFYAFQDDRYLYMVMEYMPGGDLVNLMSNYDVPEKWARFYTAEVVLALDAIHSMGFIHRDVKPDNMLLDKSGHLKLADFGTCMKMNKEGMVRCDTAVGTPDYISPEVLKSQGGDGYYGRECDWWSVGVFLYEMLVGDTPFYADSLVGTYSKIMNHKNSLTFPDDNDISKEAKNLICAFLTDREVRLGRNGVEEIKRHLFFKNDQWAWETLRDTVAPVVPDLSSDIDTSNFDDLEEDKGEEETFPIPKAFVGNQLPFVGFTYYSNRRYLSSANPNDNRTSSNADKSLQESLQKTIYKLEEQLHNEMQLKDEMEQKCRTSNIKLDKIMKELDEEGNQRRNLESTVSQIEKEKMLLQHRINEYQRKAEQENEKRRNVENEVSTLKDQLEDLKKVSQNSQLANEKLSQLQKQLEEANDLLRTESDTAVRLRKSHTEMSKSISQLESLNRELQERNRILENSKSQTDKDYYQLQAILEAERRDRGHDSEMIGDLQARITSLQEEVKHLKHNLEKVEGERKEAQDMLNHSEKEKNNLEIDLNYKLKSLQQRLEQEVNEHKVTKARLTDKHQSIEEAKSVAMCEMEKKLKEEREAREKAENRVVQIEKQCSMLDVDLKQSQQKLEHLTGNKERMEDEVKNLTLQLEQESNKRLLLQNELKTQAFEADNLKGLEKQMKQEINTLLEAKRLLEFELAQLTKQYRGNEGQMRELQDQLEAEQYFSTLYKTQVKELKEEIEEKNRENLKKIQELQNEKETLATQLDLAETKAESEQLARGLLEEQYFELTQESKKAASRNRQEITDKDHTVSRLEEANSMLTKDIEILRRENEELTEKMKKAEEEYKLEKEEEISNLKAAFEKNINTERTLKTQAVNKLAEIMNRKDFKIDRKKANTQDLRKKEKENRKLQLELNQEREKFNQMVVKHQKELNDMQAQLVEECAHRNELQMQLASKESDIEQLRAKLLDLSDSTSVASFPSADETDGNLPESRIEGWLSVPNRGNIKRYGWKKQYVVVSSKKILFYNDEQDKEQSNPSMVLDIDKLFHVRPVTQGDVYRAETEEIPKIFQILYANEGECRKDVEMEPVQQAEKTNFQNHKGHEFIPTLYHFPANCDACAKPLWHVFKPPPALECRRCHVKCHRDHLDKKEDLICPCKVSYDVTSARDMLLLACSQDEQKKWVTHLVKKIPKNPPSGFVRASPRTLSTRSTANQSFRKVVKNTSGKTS

RSK2 = molecular target: T41, RSK2 (Homo sapiens, UniProt P51812)
T41 construct: purchased Carna Biosciences

SGK = molecular target: T42, SGK (Homo sapiens, UniProt O00141)
T42 construct: purchased Carna Biosciences

SPHK1 = molecular target: T43, SPHK1 (Homo sapiens, UniProt Q9NYA1)
T43 construct: purchased Carna Biosciences
Source text: as §1

WNK2 = molecular target: T44, WNK2 (Homo sapiens, UniProt Q9Y3S1)
T44 construct: purchased Carna Biosciences
Source text: as §1

SMILES: COc1ccc(/C=C2\SC(=S)NC2=O)cc1C#C[Si](C)(C)C [FINDY]
- inhibition at 10 µM (EPHA6): 59.4%
- inhibition at 10 µM (EPHB3): 22.2%
- inhibition at 10 µM (MER): 3.4%
- inhibition at 10 µM (FRK): 8.4%
- inhibition at 10 µM (IGF1R): 2.4%
- inhibition at 10 µM (JAK1): 5.7%
- inhibition at 10 µM (JAK2): 7.1%
- inhibition at 10 µM (CaMK1α): -4.1%
- inhibition at 10 µM (MUSK): 4.1%
- inhibition at 10 µM (RET): 12.6%
- inhibition at 10 µM (ROS): 0.3%
- inhibition at 10 µM (SRC): 5.6%
- inhibition at 10 µM (SRM): 32.9%
- inhibition at 10 µM (TRKA): -0.6%
- inhibition at 10 µM (TXK): 23.7%
- inhibition at 10 µM (TYRO3): 2.9%
- inhibition at 10 µM (AMPKα2/β1/γ1): 1.7%
- inhibition at 10 µM (AurA): 58.7%
- inhibition at 10 µM (CaMK1δ): 7.2%
- inhibition at 10 µM (CDK2/CycA2): 31.3%
- inhibition at 10 µM (CGK2): 14.6%
- inhibition at 10 µM (Erk2): 36.4%
- inhibition at 10 µM (IKKα): 4.9%
- inhibition at 10 µM (JNK1): 1.5%
- inhibition at 10 µM (LOK): -28.2%
- inhibition at 10 µM (MAP2K5_Cascade): -0.1%
- inhibition at 10 µM (MAP2K7_Cascade): 14.4%
- inhibition at 10 µM (NuaK1): -26.4%
- inhibition at 10 µM (MARK1): 46.7%
- inhibition at 10 µM (MARK4): 79.8%
- inhibition at 10 µM (MRCKβ): 0.1%
- inhibition at 10 µM (NDR2): 8.1%
- inhibition at 10 µM (NEK1): 37.3%
- inhibition at 10 µM (NEK6): 23.6%
- inhibition at 10 µM (PAK1): -0.2%
- inhibition at 10 µM (PDK1): -2.6%
- inhibition at 10 µM (PIM1): 76.8%
- inhibition at 10 µM (PKACβ): 65.3%
- inhibition at 10 µM (PKCδ): -1.3%
- inhibition at 10 µM (ROCK1): 6.8%
- inhibition at 10 µM (RSK2): 39.9%
- inhibition at 10 µM (SGK): 27.8%
- inhibition at 10 µM (SPHK1): 51.2%
- inhibition at 10 µM (WNK2): 12.3%
